Measurements taken from PubChem BioAssay (NCI).
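At the GI50, growth is halved. TGI denotes the concentration required for complete inhibition of growth.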

Experiments:
Experiment in all cases: NCI-60 cell line screen, 384-well format
786-0 renal = tested on: 786-0 renal
A498 renal = tested on: A498 renal
A549 NSCLC = tested on: A549 NSCLC
ACHN renal = tested on: ACHN renal
BT-549 breast = tested on: BT-549 breast
CAKI-1 renal = tested on: CAKI-1 renal
CCRF-CEM leukemia = tested on: CCRF-CEM leukemia
COLO 205 colon = tested on: COLO 205 colon
DU-145 prostate = tested on: DU-145 prostate
EKVX NSCLC = tested on: EKVX NSCLC
HCC-2998 colon = tested on: HCC-2998 colon
HCT-116 colon = tested on: HCT-116 colon
HCT-15 colon = tested on: HCT-15 colon
HL-60(TB) leukemia = tested on: HL-60(TB) leukemia
HOP-62 NSCLC = tested on: HOP-62 NSCLC
HOP-92 NSCLC = tested on: HOP-92 NSCLC
HS 578T breast = tested on: HS 578T breast
HT29 colon = tested on: HT29 colon
IGROV1 ovarian = tested on: IGROV1 ovarian
K-562 leukemia = tested on: K-562 leukemia
KM12 colon = tested on: KM12 colon
LOX IMVI melanoma = tested on: LOX IMVI melanoma
M14 melanoma = tested on: M14 melanoma
MALME-3M melanoma = tested on: MALME-3M melanoma
MCF7 breast = tested on: MCF7 breast
MDA-MB-231 breast = tested on: MDA-MB-231 breast
MDA-MB-435 melanoma = tested on: MDA-MB-435 melanoma
MDA-MB-468 breast = tested on: MDA-MB-468 breast
MOLT-4 leukemia = tested on: MOLT-4 leukemia
NCI-H226 lung = tested on: NCI-H226 lung
NCI-H23 lung = tested on: NCI-H23 lung
NCI-H322M lung = tested on: NCI-H322M lung
NCI-H460 NSCLC = tested on: NCI-H460 NSCLC
NCI-H522 lung = tested on: NCI-H522 lung
NCI/ADR-RES ovarian = tested on: NCI/ADR-RES ovarian
OVCAR-3 ovarian = tested on: OVCAR-3 ovarian
OVCAR-4 ovarian = tested on: OVCAR-4 ovarian
OVCAR-5 ovarian = tested on: OVCAR-5 ovarian
OVCAR-8 ovarian = tested on: OVCAR-8 ovarian
PC-3 prostate = tested on: PC-3 prostate
RPMI-8226 leukemia = tested on: RPMI-8226 leukemia
RXF 393 renal = tested on: RXF 393 renal
SF-268 CNS = tested on: SF-268 CNS
SF-295 CNS = tested on: SF-295 CNS
SF-539 CNS = tested on: SF-539 CNS
SK-MEL-2 melanoma = tested on: SK-MEL-2 melanoma
SK-MEL-28 melanoma = tested on: SK-MEL-28 melanoma
SK-MEL-5 melanoma = tested on: SK-MEL-5 melanoma
SK-OV-3 ovarian = tested on: SK-OV-3 ovarian
SN12C renal = tested on: SN12C renal
SNB-19 CNS = tested on: SNB-19 CNS
SNB-75 CNS = tested on: SNB-75 CNS
SW-620 colon = tested on: SW-620 colon
T-47D breast = tested on: T-47D breast
TK-10 renal = tested on: TK-10 renal
U251 glioblastoma = tested on: U251 glioblastoma
UACC-257 melanoma = tested on: UACC-257 melanoma
UACC-62 melanoma = tested on: UACC-62 melanoma
UO-31 renal = tested on: UO-31 renal

Cc1c(N)nc([C@H](CC(N)=O)NC[C@H](N)C(N)=O)nc1C(=O)N[C@H](C(=O)N[C@H](C)[C@@H](O)[C@H](C)C(=O)N[C@H](C(=O)NCCc1nc(-c2nc(C(=O)NCCC[S+](C)C)cs2)cs1)[C@@H](C)O)C(OC1OC(CO)C(O)C(O)C1OC1OC(CO)C(O)C(OC(N)=O)C1O)c1cnc[nH]1 (some centres not stated) showed a GI50 ([…]-0 renal) of 0.945 µM, a GI50 (A498 renal) of 1.51 µM and a TGI (A498 renal) of 25.9 µM. It also gave a GI50 (A549 NSCLC) of 1.65 µM, a TGI (A549 NSCLC) greater than 92.1 µM and a GI50 (ACHN renal) of 0.164 µM. The TGI (ACHN renal) was 0.929 µM, the GI50 (BT-549 breast) was 1.06 µM and the TGI (BT-549 breast) was 22.4 µM. For the same compound, the GI50 (CAKI-1 renal) was 1.43 µM, the TGI (CAKI-1 renal) was greater than 44.8 µM and the GI50 (CCRF-CEM leukemia) was 2.08 µM. The TGI (CCRF-CEM leukemia) was 6.72 µM, the GI50 (COLO 205 colon) was 2.96 µM and the TGI (COLO 205 colon) was 7.57 µM. It also gave a GI50 (DU-145 prostate) of 1.71 µM, a TGI (DU-145 prostate) greater than 20.5 µM and a GI50 (EKVX NSCLC) greater than 48.2 µM. The TGI (EKVX NSCLC) was greater than 100 µM, the GI50 (HCC-2998 colon) was 6.35 µM and the TGI (HCC-2998 colon) was 53.3 µM. It also gave a GI50 (HCT-116 colon) of 0.071 µM, a TGI (HCT-116 colon) of 19 µM and a GI50 (HCT-15 colon) of 0.4 µM. It also gave a TGI (HCT-15 colon) of 16.9 µM, a GI50 (HL-60(TB) leukemia) of 2.66 µM and a TGI (HL-60(TB) leukemia) of 7.29 µM. The GI50 (HOP-62 NSCLC) was 0.169 µM, the TGI (HOP-62 NSCLC) was 1.19 µM and the GI50 (HOP-92 NSCLC) was 0.648 µM. It also gave a TGI (HOP-92 NSCLC) of 23.6 µM, a GI50 (HS 578T breast) of 0.266 µM and a TGI (HS 578T breast) of 5.4 µM. For the same compound, the GI50 (HT29 colon) was 16.9 µM, the TGI (HT29 colon) was greater than 100 µM and the GI50 (IGROV1 ovarian) was 3.19 µM. For the same compound, the TGI (IGROV1 ovarian) was 43.6 µM, the GI50 (K-562 leukemia) was 8.46 µM and the TGI (K-562 leukemia) was greater than 79 µM. It also gave a GI50 (KM12 colon) of 1.78 µM, a TGI (KM12 colon) of 27.8 µM and a GI50 (LOX IMVI melanoma) of 0.57 µM. The TGI (LOX IMVI melanoma) was 12.3 µM, the GI50 (M14 melanoma) was 1.42 µM and the TGI (M14 melanoma) was 23.2 µM. For the same compound, the GI50 (MALME-3M melanoma) was 18.2 µM, the TGI (MALME-3M melanoma) was greater than 100 µM and the GI50 (MCF7 breast) was 10 µM. The TGI (MCF7 breast) was greater than 100 µM, the GI50 (MDA-MB-231 breast) was 31.2 µM and the TGI (MDA-MB-231 breast) was greater than 100 µM. For the same compound, the GI50 (MDA-MB-435 melanoma) was 71.3 µM, the TGI (MDA-MB-435 melanoma) was greater than 100 µM and the GI50 (MDA-MB-468 breast) was 0.97 µM. For the same compound, the TGI (MDA-MB-468 breast) was 4.28 µM, the GI50 (MOLT-4 leukemia) was 0.439 µM and the TGI (MOLT-4 leukemia) was 1.53 µM. The GI50 (NCI-H226 lung) was 0.778 µM, the TGI (NCI-H226 lung) was 9.52 µM and the GI50 (NCI-H23 lung) was 1.21 µM. For the same compound, the TGI (NCI-H23 lung) was 11.9 µM, the GI50 (NCI-H322M lung) was 26.1 µM and the TGI (NCI-H322M lung) was greater than 100 µM. It also gave a GI50 (NCI-H460 NSCLC) of 0.331 µM, a TGI (NCI-H460 NSCLC) of 14.6 µM and a GI50 (NCI-H522 lung) of 2.21 µM. The TGI (NCI-H522 lung) was 16.4 µM, the GI50 (NCI/ADR-RES ovarian) was 0.273 µM and the TGI (NCI/ADR-RES ovarian) was 5.9 µM. For the same compound, the GI50 (OVCAR-3 ovarian) was 3.67 µM, the TGI (OVCAR-3 ovarian) was 13.7 µM and the GI50 (OVCAR-4 ovarian) was 13 µM. It also gave a TGI (OVCAR-4 ovarian) greater than 54.7 µM, a GI50 (OVCAR-5 ovarian) of 6.43 µM and a TGI (OVCAR-5 ovarian) greater than 76 µM. For the same compound, the GI50 (OVCAR-8 ovarian) was 0.41 µM, the TGI (OVCAR-8 ovarian) was 21 µM and the GI50 (PC-3 prostate) was 46.5 µM. For the same compound, the TGI (PC-3 prostate) was greater than 100 µM, the GI50 (RPMI-8226 leukemia) was 7.9 µM and the TGI (RPMI-8226 leukemia) was greater than 100 µM. For the same compound, the GI50 (RXF 393 renal) was 2.2 µM, the TGI (RXF 393 renal) was 10.2 µM and the GI50 (SF-268 CNS) was 0.6 µM. It also gave a TGI (SF-268 CNS) of 8.37 µM, a GI50 (SF-295 CNS) of 0.128 µM and a TGI (SF-295 CNS) of 0.824 µM. The GI50 (SF-539 CNS) was 0.234 µM, the TGI (SF-539 CNS) was 4.56 µM and the GI50 (SK-MEL-2 melanoma) was 11.1 µM. For the same compound, the TGI (SK-MEL-2 melanoma) was 25.5 µM, the GI50 (SK-MEL-28 melanoma) was 43.7 µM and the TGI (SK-MEL-28 melanoma) was greater than 100 µM. It also gave a GI50 (SK-MEL-5 melanoma) of 0.211 µM, a TGI (SK-MEL-5 melanoma) of 1.17 µM and a GI50 (SK-OV-3 ovarian) of 4.84 µM. For the same compound, the TGI (SK-OV-3 ovarian) was greater than 64.7 µM, the GI50 (SN12C renal) was 1.62 µM and the TGI (SN12C renal) was 34.9 µM. The GI50 (SNB-19 CNS) was 6.76 µM, the TGI (SNB-19 CNS) was greater than 52 µM and the GI50 (SNB-75 CNS) was 1.32 µM. It also gave a TGI (SNB-75 CNS) of 6.43 µM, a GI50 (SW-620 colon) of 4.95 µM and a TGI (SW-620 colon) greater than 100 µM. For the same compound, the GI50 (T-47D breast) was 9.71 µM, the TGI (T-47D breast) was greater than 82.5 µM and the GI50 (TK-10 renal) was 8.01 µM. For the same compound, the TGI (TK-10 renal) was greater than 42.1 µM, the GI50 (U251 glioblastoma) was 0.522 µM and the TGI (U251 glioblastoma) was 11.2 µM. For the same compound, the GI50 (UACC-257 melanoma) was greater than 68 µM, the TGI (UACC-257 melanoma) was greater than 100 µM and the GI50 (UACC-62 melanoma) was 1.26 µM. It also gave a TGI (UACC-62 melanoma) of 20 µM, a GI50 (UO-31 renal) of 2.08 µM and a TGI (UO-31 renal) greater than 35.3 µM.
